From patent US20210239681A1, “COMPOSITIONS AND METHODS FOR […] OF […]-BASED IMMUNOTHERAPEUTICS” (ADVAXIS, INC., priority 2018, published 2021)

Experiments:
Assay type in all cases: cell-based, human
[1] = test system: 9mer specific T cells; assay: Co-culture of THP-1 with 9mer specific T cells, cytokine production; design: IFNγ / IL-10 / IL-12p70 / IL-13 / IL-1β / IL-2 / IL-5 / IL-6 / TNF-α: unit not given here; conditions: for IFNγ production, with 9mer specific T cells: Listeria MOI of 10, optical density
Excerpt: (§1) Analysis Kits and Reagents: Analysis of cytokine concentrations in culture medium used the U-plex assay kits from Meso Scale Discovery. Expression of T cell receptors specific for E7 peptide bound to HLA-A*02:01 was detected using HLA-A*02:01/peptide tetramers from MBL International (Woburn, Mass.).
(§2) There were several possible explanations for the muted response with THP-1 cells infected with ADSX11: including failure of THP-1 cells to process the 10mer epitope from full length E7 protein, failure of the THP-1 cells to present the processed 10mer E7 peptide on HLA-A*02:01, insufficient incubation of the infected cells to allow synthesis of the E7 protein and accumulation of the MHC/peptide complex on the cell surface, and/or an inhibitory effect of gentamicin. A culture of T cells specific for the 9mer epitope was used as well as a new culture of 10mer specific T cells. The THP-1 cells were infected as before with XFL7 or ADXS11-001 at an MOI of 10. After treatment with gentamicin for one hour, the cells were cultured overnight in the absence of gentamicin. The next day the infected cells were collected and co-cultured with 9mer or 10mer specific T cells. These co-cultures were set up in standard X-VIVO 15 and X-VIVO 15 without gentamicin or phenol red. The co-cultures were incubated overnight before collecting medium for cytokine analysis. The medium was tested for IFNγ concentrations and optical density. […] In addition, the 10mer specific T cells recognized ADXS11-001 infected THP-1 when there was no gentamicin in the medium.
(§3) To further explore the importance of the overnight incubation of infected THP-1, THP-1 cells infected overnight were compared to THP-1 cells infected for 2 hours. T cells specific for 9mer and 10mer peptides were co-cultured with each of the THP-1 cells and with uninfected or peptide exposed THP-1. As before, medium was collected after an overnight co-culture and cytokines were measured.
(§4) Optimization of infection time required for E7 presentation. THP-1 infected and cultured overnight compared to THP-1 infected for 2 hours and used after gentamicin treatment. Both 9-mer specific T cells and 10-mer specific T cells used. Assays were performed using X-VIVO 15 medium without gentamicin. The following cytokines were measured: IFNγ, IL-1β, IL-2, IL-10, IL-12p70, IL-13, IL-5, IL-6, TNFα.

[2] = test system: THP-1 cells; assay: Intracellular cytokine staining of THP-1 cells; conditions: FIGS. 3A-3C, FIG. 10
Protocol: (§5) To identify cytokines that can be used to measure potency of a Listeria-based therapeutic the following tests were performed. Intracellular cytokine staining was used to detect T cells specificity. THP-1 were incubated with peptide overnight, mixed with T cells from above and centrifuged. The collected cells were then co-cultured at 37° C. for 1 hour. Brefeldin A was then added and the cells were co-cultured for another 4 hours. Brefeldin A inhibits secretion and permits analysis by flow cytometry. Cell were then stained to identify dead cells and CD8+ cells. The cell were then fixed and stained for IFNγ (using fix and permeabilization buffer from eBioscience/Invitrogen).
Intracellular cytokine staining of THP-1 cells.

[3] = test system: 10mer specific T cells; assay: Co-culture of THP-1 with 10mer specific T cells, cytokine production; design: IFNγ / IL-10 / IL-13 / IL-1β / IL-2 / IL-5 / IL-6 / TNF-α: unit not given here; conditions: for IFNγ production, with 10mer specific T cells: Listeria MOI of 10, optical density
Excerpt: as §1, §2, §3, §4

[4] = test system: T cells; assay: Intracellular cytokine staining of T cells; conditions: Brefeldin A, FIG. 9
Protocol: as §5

[5] = test system: HPV E7 Specific T cells; assay: THP-1/T cell co-culture: MOI, infection time and cell ratio titration; design: IFNγ / IL-1β / IL-6 / TNF-α: unit not given here; conditions: for IFNγ production / IFNγ / IL-1β / IL-6 / TNF-α: THP-1 + peptide; for IFNγ production: THP-1 Cells 40000
Protocol: A separate experiment was performed with a range of MOI and 5 hours infection time. In this experiment only IFNγ was measured since this cytokine is only made by the T cells, not THP-1 cells. While there was still recognition of the ADXS11-001 infected THP-1 cells it was not as great as that observed in overnight cultures when compared to the peptide incubated THP-1.
The MOI used for infection was varied over a range of bacterial concentration. In Table 12 the effect of the different MOI on cytokine secretion by THP-1 is shown. […] Secretion of IFNγ by the T cells was related to the MOI with higher MOI stimulating higher IFNγ production, though there was significant IFNγ at all MOI.
Cell number and ratio of T cells to THP-1 cells was also analyzed. The above experiments all used 20,000 T cells and 20,000 THP-1 cells per well (1:1 ratio). We initially investigated the effect of cell number using THP-1 incubated with peptide. The number of both T cells and THP-1 were varied. THP-1 cells ranging from 40,000 cells to 5000 cells per well were incubated with T cells ranging from 20,000 to 5000 cells per well. Effect of varying THP-1 to T cell ratio on IFNγ production was investigated at both higher (1 μg/ml) and lower (0.1 μg/ml) peptide concentrations.
We investigated if this effect is reproducible in infected THP cells. Varying concentration of infected THP-1 cells ranging from 40000 to 10000 cells per well were incubated with T cells ranging from 40000 to 10000 cells per well to identify the optimum cell ratio for the assay. The effect of cell ratio on IFNγ production is similar to the effect observed with peptide incubation.
Titration studies with different multiplicity of infection (MOI). THP cells were infected for 2 hours with 3 different dilutions (MOI) of Listeria. Infected or uninfected THP cells were then cultured overnight for 24 hours before co-culturing the T cells. Cells were co-cultured overnight before cytokine analysis.

[6] = 9mer T cells + peptide exposed THP-1, overnight co-culture
[7] = 10mer T cells + peptide exposed THP-1, overnight co-culture

YMLDLQPETT [10mer] was tested, and the “IFNγ production, with 9mer specific T cells” value ([1]; 50 μg/mL gentamicin) was 0.075, the IFNγ [1, 6] was 112 and the IL-1β [1, 6] was “<LLOD”. For the same sequence, the IL-2 [1, 6] was 3, the IL-5 [1, 6] was “<LLOD” and the IL-6 [1, 6] was 0. The IL-10 [1, 6] was “<LLOD”, the IL-12p70 [1, 6] was 0 and the IL-13 [1, 6] was “<LLOD”. The TNF-α [1, 6] was 2, the “IFNγ production, with 9mer specific T cells” value ([1]; Without gentamicin) was 0.066 and the “Basal IFNγ in THP-1 cells after stimulation with peptide” value [2] was “not detectable”. For the same sequence, the “IFNγ production, with 10mer specific T cells” value ([3]; 50 μg/mL gentamicin) was 0.226, the IFNγ [3, 7] was 23328 and the IL-1β [3, 7] was 3. It also gave an IL-2 [3, 7] of 452, an IL-5 [3, 7] of 1 and an IL-6 [3, 7] of 31. The IL-10 [3, 7] was 12, the IL-12p70 [3, 7] was “<LLOD” and the IL-13 [3, 7] was 23. The TNF-α [3, 7] was 460, the “IFNγ production, with 10mer specific T cells” value ([3]; Without gentamicin) was 0.200 and the “IFNγ in T cells after stimulation with peptide” value [4] was “higher levels of IFNγ”. For the same sequence, the IFNγ production ([5]; T Cells 10000) was 8078, the IFNγ production ([5]; T Cells 20000) was 17968 and the IFNγ production ([5]; T Cells 40000) was 34161. It also gave an IFNγ ([5]; THP/T cell co-culture) of 33835, an IL-1β ([5]; THP/T cell co-culture) of 3 and an IL-6 ([5]; THP/T cell co-culture) of 23. For the same sequence, the TNF-α ([5]; THP/T cell co-culture) was 697, the IFNγ ([5]; co-culture with T cells) was 65099 and the IL-1β ([5]; co-culture with T cells) was 6. The IL-6 ([5]; co-culture with T cells) was 1243, the TNF-α ([5]; co-culture with T cells) was 2309 and the “IFNγ Mean” value ([5]; THP-1 incubated with peptide, mean of triplicate) was 41305 pg/mL.
